For one data set, the system named is Ehrlich ascites tumor. The data set is described as follows: Antitumor activity, transplantable Ehrlich ascites tumor (intraperitoneal). Particulars: mice, reference medication, optimal therapeutic dose of 25 ml/kg. Type of data set: in vivo. The method, then:
(§1) The antitumor activity of the medication of the present invention was studied in mice and rats with transplantable tumors of Sarcoma 37, 45, and 180, and Ehrlich ascites tumor.
(§2) In the study of antitimor properties of the medication of the present invention, the medication was used in doses of 20 and 40 ml/kg, and 10 and 30 ml/kg in the tests on mice and rats, respectively. The general toxic action which the medication had on the organism of the tested animals was estimated by their outer appearance and behavior during the experiment, as well as by the Growth Ratio (GR) expressed in percent.
The numerical data obtained was processed statistically by Student-Fisher's method.

The next data set deals with Sarcoma 180. The data set is described as follows: Antitumor activity, transplantable Sarcoma 180 (subcutaneous). In kind it is in vivo. The note with it: mice, reference medication, identical experimental conditions. The method, then:
as §1
(§3) Necrosis-free pieces of tumoral tissue (a peripheral part of a tumoral node) cut with scissors to form a homogeneous mass served as transplantants for solid models (Sarcomas 37, 45 and 180). A sterile physiological solution in the proportion of 1:3-1:4 was added to the tumor and the resulting suspension was introduced with a syringe subcutaneously to the animals. The transplantation was conducted in sterile box conditions using 12-14 days' tumor as a donor. The transplantation of sarcomas 37 and 180 was performed by means of subcutaneous introduction of 0.2-0.3 ml of the 20% tumoral suspension in a physiological solution to the axillary crease of each mouse. For the transplantation of Sarcoma 45, by 0.4-0.5 ml of suspension of tumoral cells was introduced subcutaneously (to the lateral area) of each rat. On the 4th-5th days after inoculation, when the transplanted tumor is usually pea-size, the animals were divided into test and control groups each having 8 mice and 10 rats. […] A day after the last injection of the medication, the animals were killed with ether, weighed, and the weight of tumors was measured separately. […]

For the next data set, the system named is Sarcoma 37. The data set is described as follows: Antitumor activity, transplantable Sarcoma 37 (subcutaneous). In kind it is in vivo. The note with it: mice, reference medication, identical experimental conditions. The method, then: as §1, §3
A further data set relates to Sarcoma 45. The data set is described as follows: Antitumor activity, transplantable Sarcoma 45 (subcutaneous). Type of data set: in vivo. The note with it: rats, reference medication, identical experimental conditions. How it is done:
as §1, §3

The conditions of data set [1]: in vivo. The method, then: as §2

In the case of `O=c1[nH]cc(F)c(=O)[nH]1` [5-fluorouracil], in the data set with Ehrlich ascites tumor, the “antitumor effect (inhibition of ascit accumulation)” value is reported as 70%. Also, the “inhibition of tumor growth” value in the data set on Sarcoma 180 was 45%; with Sarcoma 45 it was 32%. Besides, the “therapeutic effect (inhibition of tumor growth)” value with Sarcoma 37 is 70%. The “GR, span over all tests” value in data set [1] is on record as −7.3 to −11.

The values above are taken from patent publication US20070224291A1, “Cancer treatment” (priority 2005, published 2007).
